Results on 2 compounds are retold here after patent US10556884B2, “Pesticidally active heterocyclic derivatives with sulphur containing substituents” (SYNGENTA PARTICIPATIONS AG, priority 2015, dated 2020).

Common to all, as to format: in vivo
The subject of assay [1] is Spodoptera littoralis (Egyqptian Cotton Leaf Worm). In words: Spodoptera littoralis, uptake by lettuce roots from agar. Particulars: 144 h, test rate of 12.5 ppm, 6 days after infestation, read-out: effect in at least one of the three categories (mortality, anti-feeding, or growth inhibition). The text has this:
Example B9: Spodoptera littoralis (Egyqptian Cotton Leaf Worm)
Test compounds were applied by pipette from 10′000 ppm DMSO stock solutions into 24-well plates and mixed with agar. Lettuce seeds were placed onto the agar and the multi well plate was closed by another plate which contained also agar. After 7 days the compound was absorbed by the roots and the lettuce grew into the lid plate. The lettuce leaves were then cut off into the lid plate. Spodoptera eggs were pipetted through a plastic stencil onto a humid gel blotting paper and the lid plate was closed with it. The samples were assessed for mortality, anti-feedant effect and growth inhibition in comparison to untreated samples 6 days after infestation.

For assay [2] the test system is unchanged. In words: Spodoptera littoralis L1 larvae on sprayed cotton leaf discs. Particulars: foliar, 72 h, application rate of 200 ppm, L1 larvae, 3 days after infestation, read-out: control (mortality, anti-feeding effect, growth inhibition). As to the method: Example B8: Spodoptera littoralis (Egyqptian Cotton Leaf Worm)
Cotton leaf discs were placed onto agar in 24-well microtiter plates and sprayed with aqueous test solutions prepared from 10′000 ppm DMSO stock solutions. After drying the leaf discs were infested with five L1 larvae. The samples were assessed for mortality, anti-feeding effect, and growth inhibition in comparison to untreated samples 3 days after infestation. Control of Spodoptera littoralis by a test sample is given when at least one of the categories mortality, anti-feedant effect, and growth inhibition is higher than the untreated sample.

Assay [3] has as its system Diabrotica Balteata (Corn Root Worm). In words: Diabrotica balteata L2 larvae on maize sprouts. The conditions noted are these: 96 h, application rate of 200 ppm, L2 larvae, 4 days after infestation, read-out: effect in at least one of the two categories (mortality or growth inhibition). On the procedure: Example B2: Diabrotica Balteata (Corn Root Worm)
Maize sprouts placed onto an agar layer in 24-well microtiter plates were treated with aqueous test solutions prepared from 10′000 ppm DMSO stock solutions by spraying. After drying, the plates were infested with L2 larvae (6 to 10 per well). The samples were assessed for mortality and growth inhibition in comparison to untreated samples 4 days after infestation.

Assay [4] has as its system Plutella xylostella (Diamond Back Moth). The assay is described as follows: Plutella xylostella L2 larvae on artificial diet. Particulars: 120 h, application rate of 200 ppm, L2 larvae, 5 days after infestation, read-out: effect in at least one of the two categories (mortality or growth inhibition). On the procedure:
Example B7: Plutella xylostella (Diamond Back Moth)
24-well microtiter plates with artificial diet were treated with aqueous test solutions prepared from 10′000 ppm DMSO stock solutions by pipetting. After drying, the plates were infested with L2 larvae (10 to 15 per well). The samples were assessed for mortality and growth inhibition in comparison to untreated samples 5 days after infestation.

As usually defined, the mortality is the share of the test organisms that died.

As to `CCS(=O)(=O)c1ccc(C(=O)O)nc1-c1nnc(-c2cc(C(F)(F)F)ccn2)n1C` [A34, 5-ethylsulfonyl-6-[4-methyl-5-[4-(trifluoromethyl)-2-pyridyl]-1,2,4-triazol-3-yl]pyridine-2-carboxylic Acid], the percent effect (mortality, anti-feeding or growth inhibition) at 12.5 ppm in assay [1] was not below 80%.

`CCS(=O)(=O)c1cc(N)c(Br)nc1-c1nnc(-c2cc(C(F)(F)F)ccn2)n1C` [A45]: in assay [1], the percent effect (mortality, anti-feeding or growth inhibition) at 12.5 ppm was not below 80%. Besides, in assay [2], the mortality at 200 ppm is not below 80%. Further, the percent effect (mortality or growth inhibition) at 200 ppm in assay [3] and in assay [4] was not below 80% each time.
